Article PMC9747113 (Clinical and Translational Science, 2022)
“Also recorded” adds a separate entry of the source.

Experiments:
[1] = system: BTK; conditions: 2 h after the first dose; cited from earlier work
[2] = system: BTK; conditions: cited from earlier work
[3] = Population PK model of evobrutinib plasma concentration-time data
[4] = Tolerability in fed and fasted states; format: in vivo; conditions: fed vs fasted
[5] = between-participant variability, variance estimate
[6] = final population PK model, oral tablet

## C=CC(=O)N1CCC(CNc2ncnc(N)c2-c2ccc(Oc3ccccc3)cc2)CC1 [evobrutinib, Evobrutinib]
[1]
  BTKO in peripheral blood: high degree of BTKO
[2]; after 14 days of 25 mg q.d. while fasted
  BTKO, median at trough: 88%
[2]; single doses ≥100 mg while fasted
  BTK occupancy at 96 h postdose: > 50%
[2]; within 4 h of single doses ≥200 mg while fasted
  maximum BTK occupancy: > 90%
[3]; [5]
  BPV ALAG, Estimate (RSE %): 0.156 (40.2)
  BPV CL/F, Estimate (RSE %): 0.0958 (23.0)
  BPV D 1 Fasted, Estimate (RSE %): 1.39 (47.2)
  BPV D 1 Fed, Estimate (RSE %): 1.39 (47.2)
  BPV Q/F, Estimate (RSE %): 1.17 (24.1)
  BPV V2/F, Estimate (RSE %): 0.627 (31.9)
  BPV V3/F, Estimate (RSE %): 1.86 (22.7)
[3]; covariate test
  Effect of ethnicity (Japanese vs non-Japanese) on PK parameters: no difference; also recorded: not a significant covariate
[3]; [6]
  ALAG (absorption lag time): 0.235 h
  CL/F (apparent clearance): 273 L/h
  K a (first-order absorption rate constant): 0.784 h⁻¹
  V3/F (apparent peripheral volume of distribution): 446 L
[3]; human, in vivo, po
  Vd/F: 61.1 L
[3]; low-fat meal vs fasted
  Increase of bioavailability with food compared with fasted: 49%
[4]
  Tolerability in fed and fasted states: equivalent
